# From paper PMC9067113 (IUCrJ, 2022)
# Like-named read-outs stand apart in the source and are kept apart here.
# Columns and labels:
# [1] = target: natural β-lactoglobulin (Bos taurus, UniProt P02754)
# [2] = target: T1, β-lactoglobulin I56F/L39A/M107F (FAF) (Bos taurus, UniProt P02754, I18S/I72F/L17A/L55A/M123F); conditions: for N, stoichiometry: one set of binding sites model
# [3] = target: T2, β-lactoglobulin I56F/L39A/M107W (FAW) (Bos taurus, UniProt P02754, I18S/I72F/L17A/L55A/M123W)
# [4] = target: T1, β-lactoglobulin I56F/L39A/M107F (FAF); conditions: 50 mM phosphate buffer pH 7.5
# [5] = target: T2, β-lactoglobulin I56F/L39A/M107W (FAW); conditions: 50 mM phosphate buffer pH 7.5
# T1 sequence (P02754 17-178 L17A/I18S/L55A/I72F/M123F): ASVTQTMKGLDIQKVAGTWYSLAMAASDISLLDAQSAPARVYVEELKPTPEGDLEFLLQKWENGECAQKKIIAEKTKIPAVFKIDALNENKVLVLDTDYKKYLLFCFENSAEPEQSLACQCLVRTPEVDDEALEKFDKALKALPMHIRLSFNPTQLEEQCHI
# Sequence of natural β-lactoglobulin (P02754 17-178): as the sequence (P02754 17-178 L17A/I18S/L55A/I72F/M123F) above, with A1L, S2I, A39L, F56I, F107M counted along it
# T2 sequence (P02754 17-178 L17A/I18S/L55A/I72F/M123W): as the sequence (P02754 17-178 L17A/I18S/L55A/I72F/M123F) above, with F107W counted along it
structure (smiles),measurement,setting,value
"CNCCCN1c2ccccc2CCc2ccccc21 [DSM, desipramine]","N, stoichiometry","[1]; Natural BLG, pH 7.5, 25 mM HEPES, 150 mM NaCl, 293 K, one set of binding sites model",0.91 ± 0.08
same,TΔS a,"[1]; Natural BLG, pH 7.5, 293 K",4.395 kcal/mol
same,"ΔH a, enthalpy change","[1]; Natural BLG, pH 7.5, 293 K",-1.298 ± 0.145 kcal/mol
same,"ΔS a, entropy change","[1]; Natural BLG, pH 7.5, 293 K",15.0 cal mol^−1 K^−1
same,outcome of ITC titration at pH 8.5,"[1]; native protein, Tris buffer pH 8.5",insufficient enthalpy change for the calculation of binding parameters
same,"N, stoichiometry","[2]; pH 7.5, 25 mM HEPES, 150 mM NaCl, 293 K",0.94 ± 0.06
same,TΔS a,"[2]; pH 7.5, 293 K",4.2192 kcal/mol
same,"ΔH a, enthalpy change","[2]; pH 7.5, 293 K",-1.634 ± 0.133 kcal/mol
same,"ΔS a, entropy change","[2]; pH 7.5, 293 K",14.4 cal mol^−1 K^−1
same,TΔS a,"[2]; pH 8.5, Tris buffer, 293 K",5.3033 kcal/mol
same,"ΔS a, entropy change","[2]; pH 8.5, Tris buffer, 293 K",18.1 cal mol^−1 K^−1
same,"N, stoichiometry","[2]; pH 8.5, Tris buffer, 293 K",1.21 ± 0.08
same,outcome of ITC titration at pH 8.5,[3]; Tris buffer pH 8.5,insufficient enthalpy change for the calculation of binding parameters
same,"N, stoichiometry","[3]; pH 7.5, 25 mM HEPES, 150 mM NaCl, 293 K, one set of binding sites model",0.92 ± 0.05
same,TΔS a,"[3]; pH 7.5, 293 K",4.2485 kcal/mol
same,"ΔH a, enthalpy change","[3]; pH 7.5, 293 K",-1.792 ± 0.137 kcal/mol
same,"ΔS a, entropy change","[3]; pH 7.5, 293 K",14.5 cal mol^−1 K^−1
same,"stoichiometry (DSM molecule per BLG chain), CD",[4],1
same,"stoichiometry (DSM molecule per BLG chain), CD",[5],1
